In ChEMBL document CHEMBL4418479, “Diamino heterocyclic carboxamide compound” (2016):
The source made the active and inactive calls. No cut-off for these calls is given here.

Key:
[1] = target: ALK tyrosine kinase receptor (Homo sapiens) (UniProt Q9UM73); conditions: 5 nM
Description: Inhibition of N-terminal GST-tagged human ALK cytoplasmic domain (1058 to 1620 amino acids) expressed in baculovirus expression system at 5 nM relative to control

EML4-ALK [2] = target: EML4-ALK (Homo sapiens, UniProt Q9UM73+Q9HC35); experiment: Inhibition of recombinant FLAG-tagged EML4-ALK fusion protein (unknown origin) expressed in mouse BA/F3 cells assessed as inhibition of cell growth incubated for 2 days by alamar blue dye based assay
[3] = Antitumor activity against mouse NIH-3T3/EML4-ALK cells implanted in Balb/c mouse assessed as inhibition of tumor growth at 10 mg/kg, po dosed once daily for 5 days and measured every other day relative to untreated control; format: functional; conditions: NIH3T3, po, 120 h, read-out: TGI
EML4-ALK [4] = target: EML4-ALK (Homo sapiens, UniProt Q9UM73); experiment: Inhibition of recombinant FLAG-tagged EML4-ALK fusion protein (unknown origin) expressed in mouse BA/F3 cells using peptide substrate and ATP incubated for 1 hr by HTRF assay
NCI-H2228 = experiment: Antitumor activity against EML4-ALK fusion protein harboring human NCI-H2228 cells xenografted in NOD/SCID mouse assessed as inhibition of tumor growth at 1 mg/kg, po dosed once daily for 14 days starting 3 weeks of tumor cell inoculation and measured every other day relative to untreated control; format: functional

Chain of ALK tyrosine kinase receptor (Homo sapiens) (Q9UM73 19-1620 limits assumed): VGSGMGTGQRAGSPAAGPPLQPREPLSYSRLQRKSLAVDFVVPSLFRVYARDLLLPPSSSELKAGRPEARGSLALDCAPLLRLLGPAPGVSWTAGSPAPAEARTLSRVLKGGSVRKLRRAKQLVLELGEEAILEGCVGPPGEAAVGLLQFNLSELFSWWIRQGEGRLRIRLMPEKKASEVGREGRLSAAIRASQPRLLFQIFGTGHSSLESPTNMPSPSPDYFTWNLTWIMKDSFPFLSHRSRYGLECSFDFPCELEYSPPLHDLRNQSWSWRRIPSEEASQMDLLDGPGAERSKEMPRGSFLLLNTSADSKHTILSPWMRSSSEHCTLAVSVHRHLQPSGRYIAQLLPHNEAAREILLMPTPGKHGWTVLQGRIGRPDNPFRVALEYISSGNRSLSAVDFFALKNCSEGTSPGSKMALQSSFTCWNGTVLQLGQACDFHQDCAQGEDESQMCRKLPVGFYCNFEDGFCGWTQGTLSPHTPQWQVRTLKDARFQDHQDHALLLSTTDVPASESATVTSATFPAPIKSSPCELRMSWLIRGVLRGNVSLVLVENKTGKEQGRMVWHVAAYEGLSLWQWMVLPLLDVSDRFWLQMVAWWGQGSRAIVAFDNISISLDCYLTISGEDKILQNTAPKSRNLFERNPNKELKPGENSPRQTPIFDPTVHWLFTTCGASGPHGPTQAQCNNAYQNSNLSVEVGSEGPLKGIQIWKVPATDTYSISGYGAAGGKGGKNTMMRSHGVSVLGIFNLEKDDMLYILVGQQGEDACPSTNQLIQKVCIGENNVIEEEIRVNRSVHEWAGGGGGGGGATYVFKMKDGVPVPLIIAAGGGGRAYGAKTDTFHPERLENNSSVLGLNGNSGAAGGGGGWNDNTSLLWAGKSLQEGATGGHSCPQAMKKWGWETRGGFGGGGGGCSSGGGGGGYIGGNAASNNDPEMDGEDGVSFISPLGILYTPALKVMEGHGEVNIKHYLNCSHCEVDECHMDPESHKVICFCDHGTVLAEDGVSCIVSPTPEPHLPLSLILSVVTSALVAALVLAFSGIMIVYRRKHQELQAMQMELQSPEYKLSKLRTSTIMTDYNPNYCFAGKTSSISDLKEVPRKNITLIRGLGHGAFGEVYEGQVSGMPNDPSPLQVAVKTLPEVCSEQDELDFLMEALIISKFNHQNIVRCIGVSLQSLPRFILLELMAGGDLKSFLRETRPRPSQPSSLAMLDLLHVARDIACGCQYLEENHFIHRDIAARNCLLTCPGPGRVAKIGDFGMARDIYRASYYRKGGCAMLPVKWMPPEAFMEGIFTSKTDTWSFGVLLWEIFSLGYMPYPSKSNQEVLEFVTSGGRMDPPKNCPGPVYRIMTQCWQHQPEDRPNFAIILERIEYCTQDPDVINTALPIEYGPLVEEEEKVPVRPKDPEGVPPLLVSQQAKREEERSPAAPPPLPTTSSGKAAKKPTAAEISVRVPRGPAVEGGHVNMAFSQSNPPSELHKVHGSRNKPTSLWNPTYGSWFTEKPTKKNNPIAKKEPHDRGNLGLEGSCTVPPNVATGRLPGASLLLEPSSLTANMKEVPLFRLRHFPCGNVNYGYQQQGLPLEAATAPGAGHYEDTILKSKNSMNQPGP
Chain of EML4-ALK (Homo sapiens, UniProt Q9UM73) (Q9UM73 whole entry, the tested form may be a part): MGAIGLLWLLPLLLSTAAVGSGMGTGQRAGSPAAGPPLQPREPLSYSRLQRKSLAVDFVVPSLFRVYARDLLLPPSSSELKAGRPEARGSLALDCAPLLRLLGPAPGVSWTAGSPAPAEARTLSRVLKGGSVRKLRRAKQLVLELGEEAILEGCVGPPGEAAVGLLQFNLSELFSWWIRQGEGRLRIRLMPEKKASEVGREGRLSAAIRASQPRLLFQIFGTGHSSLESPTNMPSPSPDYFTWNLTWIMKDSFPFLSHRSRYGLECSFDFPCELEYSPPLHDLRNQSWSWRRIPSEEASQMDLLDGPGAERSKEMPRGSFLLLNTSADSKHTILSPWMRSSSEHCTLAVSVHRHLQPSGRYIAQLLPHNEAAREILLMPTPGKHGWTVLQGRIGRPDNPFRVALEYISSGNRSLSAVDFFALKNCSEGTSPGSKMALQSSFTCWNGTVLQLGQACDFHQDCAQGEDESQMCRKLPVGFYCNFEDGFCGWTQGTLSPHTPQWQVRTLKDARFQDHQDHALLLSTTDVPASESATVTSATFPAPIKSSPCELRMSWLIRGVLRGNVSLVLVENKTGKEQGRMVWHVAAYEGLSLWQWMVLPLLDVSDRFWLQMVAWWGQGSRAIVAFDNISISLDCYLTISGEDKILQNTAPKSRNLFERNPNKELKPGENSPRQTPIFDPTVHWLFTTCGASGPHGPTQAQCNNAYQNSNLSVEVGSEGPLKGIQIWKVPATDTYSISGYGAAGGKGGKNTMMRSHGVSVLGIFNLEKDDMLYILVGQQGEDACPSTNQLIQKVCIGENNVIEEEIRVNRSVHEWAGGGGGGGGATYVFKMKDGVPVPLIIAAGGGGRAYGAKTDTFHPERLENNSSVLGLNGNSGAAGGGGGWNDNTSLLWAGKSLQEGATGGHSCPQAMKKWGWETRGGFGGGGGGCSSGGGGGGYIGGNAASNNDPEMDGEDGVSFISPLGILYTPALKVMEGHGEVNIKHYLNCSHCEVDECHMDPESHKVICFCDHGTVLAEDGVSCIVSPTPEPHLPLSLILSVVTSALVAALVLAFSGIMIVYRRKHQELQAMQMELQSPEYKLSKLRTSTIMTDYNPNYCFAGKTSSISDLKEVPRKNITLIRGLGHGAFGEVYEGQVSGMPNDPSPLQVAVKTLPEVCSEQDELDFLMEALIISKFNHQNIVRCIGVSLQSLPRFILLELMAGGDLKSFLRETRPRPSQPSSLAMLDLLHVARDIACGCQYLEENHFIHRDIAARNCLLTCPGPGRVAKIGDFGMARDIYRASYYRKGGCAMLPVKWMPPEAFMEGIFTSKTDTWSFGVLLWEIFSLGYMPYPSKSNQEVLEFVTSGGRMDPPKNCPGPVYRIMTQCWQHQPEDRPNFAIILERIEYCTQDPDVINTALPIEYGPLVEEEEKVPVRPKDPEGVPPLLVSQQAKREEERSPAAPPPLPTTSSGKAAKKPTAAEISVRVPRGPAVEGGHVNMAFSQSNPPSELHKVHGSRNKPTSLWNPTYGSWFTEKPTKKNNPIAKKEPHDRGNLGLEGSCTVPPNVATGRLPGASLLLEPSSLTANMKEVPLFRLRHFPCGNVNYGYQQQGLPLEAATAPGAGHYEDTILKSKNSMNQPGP
Chain of EML4-ALK (Homo sapiens, UniProt Q9UM73) (Q9HC35 whole entry, further chain, the tested form may be a part): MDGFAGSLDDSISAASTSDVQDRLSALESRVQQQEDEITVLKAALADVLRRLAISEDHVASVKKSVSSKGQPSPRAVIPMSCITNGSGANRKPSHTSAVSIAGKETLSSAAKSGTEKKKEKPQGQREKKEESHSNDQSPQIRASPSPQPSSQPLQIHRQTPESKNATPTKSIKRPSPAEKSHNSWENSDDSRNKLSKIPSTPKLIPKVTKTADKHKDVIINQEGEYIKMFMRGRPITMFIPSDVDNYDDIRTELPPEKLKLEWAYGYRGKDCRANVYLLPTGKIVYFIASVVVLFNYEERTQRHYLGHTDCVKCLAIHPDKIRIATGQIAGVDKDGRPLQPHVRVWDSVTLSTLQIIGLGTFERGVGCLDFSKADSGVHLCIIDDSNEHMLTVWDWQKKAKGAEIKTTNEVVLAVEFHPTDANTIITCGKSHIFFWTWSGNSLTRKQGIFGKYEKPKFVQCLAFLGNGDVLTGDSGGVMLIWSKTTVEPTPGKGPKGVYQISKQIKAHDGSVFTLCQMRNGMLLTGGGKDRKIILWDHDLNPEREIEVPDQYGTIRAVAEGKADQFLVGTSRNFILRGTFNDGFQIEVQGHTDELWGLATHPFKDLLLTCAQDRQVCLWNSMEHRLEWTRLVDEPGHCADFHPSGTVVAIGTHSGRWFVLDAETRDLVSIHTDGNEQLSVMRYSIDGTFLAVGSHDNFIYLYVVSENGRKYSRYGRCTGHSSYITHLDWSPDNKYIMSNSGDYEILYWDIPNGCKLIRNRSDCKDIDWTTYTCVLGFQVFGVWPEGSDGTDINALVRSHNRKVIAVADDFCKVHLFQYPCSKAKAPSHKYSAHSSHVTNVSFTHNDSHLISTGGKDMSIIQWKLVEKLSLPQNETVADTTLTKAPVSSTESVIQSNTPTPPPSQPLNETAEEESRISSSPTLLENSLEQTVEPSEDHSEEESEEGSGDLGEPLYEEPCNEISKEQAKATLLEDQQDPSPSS
Chain of EML4-ALK (Homo sapiens, UniProt Q9UM73+Q9HC35) (Q9UM73 whole entry, the tested form may be a part): as the sequence (Q9UM73 whole entry, the tested form may be a part) above
Chain of EML4-ALK (Homo sapiens, UniProt Q9UM73+Q9HC35) (Q9HC35 whole entry, the tested form may be a part): as the sequence (Q9HC35 whole entry, further chain, the tested form may be a part) above

Structure (SMILES)	inhibition [1]	further results
CCc1nc(C(N)=O)c(Nc2ccc(N3CCC(N4CCN(C)CC4)CC3)c(C)c2)nc1N[C@H]1CC[C@@](C)(O)CC1	> 50%	–
CCc1nc(C(N)=O)c(Nc2ccc(N3CCC(N4CCN(C)CC4)CC3)cc2)nc1N[C@H]1CC[C@H](O)CC1	> 50%	–
CCc1nc(C(N)=O)c(Nc2ccc3cnn(C)c3c2)nc1N[C@H]1CC[C@H](O)CC1	–	IC50 (EML4-ALK [2]): 76 nM
CCc1nc(C(N)=O)c(Nc2ccc(N3CCN(C(C)C)CC3)c(C)c2)nc1N[C@H]1CC[C@H](O)CC1	> 50%	inhibition in vivo at 10 mg/kg [3]: 81%
CCc1nc(C(N)=O)c(Nc2ccc(N3CCC(N4CCN(C)CC4)CC3)c(C)c2)nc1N[C@H]1CC[C@](O)(C(C)C)CC1	–	IC50 (EML4-ALK [4]): 2.6 nM
CCc1nc(C(N)=O)c(Nc2ccc(N3CCC(N4CCN(C)CC4)CC3)c(C)c2)nc1N[C@H]1CC[C@H](O)CC1	> 50%	inhibition in vivo at 10 mg/kg [3]: 92%
CCc1nc(C(N)=O)c(Nc2ccc(N3CCN(C)CC3)cc2)nc1N[C@H]1CC[C@H](O)CC1	> 50%	–
CCc1nc(C(N)=O)c(Nc2ccc(N3CCC(N4CCN(C)CC4)CC3)c(C)c2)nc1N[C@H]1CC[C@](C)(O)CC1	> 50%	–
NC(=O)c1cnc(N[C@@H]2CCCC[C@@H]2N)nc1Nc1ccc(-c2ccc(N3CCOCC3)cc2)cc1 (racemic)	–	TGI (NCI-H2228): inactive
CCc1nc(C(N)=O)c(Nc2ccc(N3CCC(N4CCN(C)CC4)CC3)c(C(F)(F)F)c2)nc1N[C@H]1CC[C@H](O)CC1	> 50%	inhibition in vivo at 10 mg/kg [3]: 81%
Cc1cc(Nc2nc(N[C@H]3CC[C@H](O)CC3)c(Cl)nc2C(N)=O)ccc1N1CCC(N2CCN(C)CC2)CC1	> 50%	–
CCc1nc(C(N)=O)c(Nc2ccc(N3CCC(N4CCN(C)CC4)CC3)c(C)c2)nc1N[C@H]1CC[C@](O)(CC)CC1	–	IC50 (EML4-ALK [4]): 3.1 nM
CCc1nc(C(N)=O)c(Nc2ccc(N3CCC(N4CCN(C)CC4)CC3)cc2)nc1NC1CCOCC1	> 50%	inhibition in vivo at 10 mg/kg [3]: 79%
CCc1nc(C(N)=O)c(Nc2ccc(N3CCC(N4CCN(C)CC4)CC3)c(C)c2)nc1N[C@H]1CC[C@@](O)(C(C)C)CC1	–	IC50 (EML4-ALK [4]): 4.1 nM
CCc1nc(C(N)=O)c(Nc2ccc(N3CCC(N4CCN(C)CC4)CC3)c(C)c2)nc1N[C@H]1CC[C@@](O)(CC)CC1	–	IC50 (EML4-ALK [4]): 2.8 nM
CCc1nc(C(N)=O)c(Nc2cccc(C)c2)nc1NCCN(C)C	–	TGI (NCI-H2228): inactive

Continued, in another order:

inhibition [1]	Structure (SMILES)	further results
> 50%	CC(C)c1nc(C(N)=O)c(Nc2ccc(N3CCC(N4CCN(C)CC4)CC3)cc2)nc1NC1CCOCC1	inhibition in vivo at 1 mg/kg (NCI-H2228; read-out: TGI): 69%
> 50%	CC(C)c1nc(C(N)=O)c(Nc2ccc(N3CCN(C)CC3)cc2)nc1N[C@H]1CC[C@H](O)CC1	–
> 50%	CCc1nc(C(N)=O)c(Nc2ccc(N3CCC(N4CCN(C)CC4)CC3)c(OC)c2)nc1NC1CCOCC1	–
> 50%	CC(C)c1nc(C(N)=O)c(Nc2ccc(N3CCC(N4CCN(C)CC4)CC3)c(C(F)(F)F)c2)nc1N[C@H]1CC[C@H](O)CC1	–
> 50%	CCc1nc(C(N)=O)c(Nc2ccc(N3CCN(C)CC3)c(F)c2)nc1NC1CCOCC1	–
> 50%	CCc1nc(C(N)=O)c(Nc2ccc(N3CCN(C4CCN(C)CC4)CC3)c(C)c2)nc1NC1CCOCC1	–
> 50%	COc1cc(Nc2nc(NC3CCOCC3)c(C(C)C)nc2C(N)=O)ccc1N1CCN(C)CC1	inhibition in vivo at 10 mg/kg [3]: 63%
> 50%	CC(C)c1nc(C(N)=O)c(Nc2ccc(N3CCN(C)CC3)cc2)nc1NC1CCOCC1	–
> 50%	CCc1nc(C(N)=O)c(Nc2ccc(N3CCC(N4CCN(C)CC4)CC3)c(C)c2)nc1NC1CCOCC1	–
